Source: PubChem BioAssay (NCI)
Values joined by “and” are separate entries in the source; they are usually repeats but may differ in a detail not shown here. Equal values may be shown once.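 Values below derive from 48-hour exposures of cells grown in 96-well plates, with endpoints linearly interpolated between the two concentrations bracketing the appropriate inhibition level. At the GI50, growth is halved. Definition used: TGI = concentration required for complete inhibition of growth.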

What follows are compounds tested on LOX IMVI melanoma (assay: DTP human tumour cell line panel, 48 h).
Work on `O=C1C=CC2(O[C@H](c3ccccc3)[C@@H](c3ccccc3)O2)[C@H](Sc2ccccc2O)C1` yielded a TGI of 0.338 µM.

What follows are compounds tested on NCI-H23 lung (assay: DTP human tumour cell line panel, 48 h).
For `O=c1c(F)cn2c(=O)n1CCCCCCCn1c(=O)c(F)cn(c1=O)CCCCCCC2`, the TGI was greater than 100 µM. `O=C(ON=C1c2ccccc2C(Br)C(Br)c2ccccc21)c1ccccc1` (stereo unspecified) showed a TGI of 37.8 µM. For `CC(=O)c1ccc(Oc2c3ccccc3nc3ccccc23)cc1`, the TGI was 56.6 µM. In the case of `Cn1c2ccccc2n2c3ncccc3c(=O)c(C#N)c12`, the TGI was 36.6 µM. Work on `COc1ccc2nc(NC(=O)/C(C#N)=C/c3ccccc3)sc2c1` yielded a TGI greater than 100 µM. Compound `Cc1nc2ccc(Cl)cc2c(-n2ccnc2)c1CCn1ccnc1` has a TGI greater than 100 µM. In the case of `Cc1c(C)n(-c2ccccc2)c2nc(S(C)=O)nc(S(C)=O)c12` (stereo unspecified), the TGI was 29.5 µM. Compound `CC1(C)CC(=O)C2=C(C1)C(c1ccccc1Cl)C1C(=O)CC(C)(C)CC1(O)O2` (stereo unspecified) has a TGI greater than 100 µM. With `C[C@@H]1CC[C@@]2(C)C(C(=O)O)=CCCC2[C@@]1(C)CC(=O)c1ccoc1` (stereo partly specified) the TGI was greater than 25 µM. Compound `O=C(CCc1cc(O)cc(O)c1)NCCc1cc(OCc2ccccc2)cc(OCc2ccccc2)c1` has a TGI of 24.6 µM. Work on `c1ccc(C2=NC3OC2c2ccccc23)cc1` (stereo unspecified) yielded a TGI greater than 10 µM. Work on `CCOC(=O)CSc1nc(N)c2c(-c3ccccc3)c3c(nc2n1)CCCC3` yielded a TGI greater than 100 µM. For `COC(=O)/C=C(/C=C1/C(C#N)=C(N)N(c2ccc(Cl)cc2)C1(C)/C(=C\C(=O)OC)C(=O)OC)C(=O)OC` (stereo unspecified), the TGI was 40.5 µM. For `Cc1c2ccnc(C(N)=O)c2c(C)c2c1[nH]c1ccccc12`, the GI50 was 3.41 µM and the TGI was 24.4 µM and 18.9 µM. `O=c1c2c3c(sc2[nH]c(=S)n1-c1ccccc1)CCCc1ccc([N+](=O)[O-])cc1-3` gave a TGI greater than 100 µM. For `CCOC1C=CC(=O)C(CO)O1` (stereo unspecified), the TGI was 27.6 µM. With `Cc1c2cccc-2c2cc(O)c3ccccc3c2n1-c1ccc(N(C)C)cc1` the TGI was 18.2 µM. Work on `O=CC(I)=C(c1ccccc1)c1ccccc1` yielded a TGI of 46.9 µM. `Cn1c2ccccc2c2ccc3c(c21)C(=O)c1ccc2c4ccccc4n(C)c2c1C3=O` gave a TGI greater than 100 µM. `Cc1ccc(-c2cc(-c3ccco3)c(C#N)c(=S)[nH]2)cc1` gave a TGI of 97.8 µM. `COC(=O)c1ccccc1C1CN=NC12Cc1c(ccc(C)c1C)C2=O` (stereo unspecified) was tested, and the TGI was greater than 100 µM. `CN(C)CCN(c1ccccn1)c1ccccn1` showed a TGI greater than 100 µM. `O=C(O)c1nc2ccc(C(F)(F)F)cc2[nH]c1=O` gave a TGI greater than 100 µM. With `CC(C)NC(=O)OCc1c(COC(=O)NC(C)C)n(C)c2c1ccc1sccc12` the TGI was 29.3 µM. Work on `O=C(CC(NC(=O)C(F)(F)F)C(=O)O)OCc1ccccc1` (stereo unspecified) yielded a TGI greater than 100 µM. For `O=C1C=CC2(O[C@H](c3ccccc3)[C@@H](c3ccccc3)O2)[C@H](Sc2ccccc2O)C1`, the TGI was 2.39 µM.

Each compound was assayed on NCI-H522 lung (assay: DTP human tumour cell line panel, 48 h).
`O=c1c(F)cn2c(=O)n1CCCCCCCn1c(=O)c(F)cn(c1=O)CCCCCCC2` showed a TGI greater than 100 µM. With `O=C(ON=C1c2ccccc2C(Br)C(Br)c2ccccc21)c1ccccc1` (stereo unspecified) the TGI was 3.85 µM. `CC(=O)c1ccc(Oc2c3ccccc3nc3ccccc23)cc1` was tested, and the TGI was 25.4 µM. `Cn1c2ccccc2n2c3ncccc3c(=O)c(C#N)c12` showed a TGI of 35.4 µM. With `COc1ccc2nc(NC(=O)/C(C#N)=C/c3ccccc3)sc2c1` the TGI was 65.4 µM. For `Cc1nc2ccc(Cl)cc2c(-n2ccnc2)c1CCn1ccnc1`, the TGI was 70.9 µM. With `Cc1c(C)n(-c2ccccc2)c2nc(S(C)=O)nc(S(C)=O)c12` (stereo unspecified) the TGI was 4.59 µM. In the case of `CC1(C)CC(=O)C2=C(C1)C(c1ccccc1Cl)C1C(=O)CC(C)(C)CC1(O)O2` (stereo unspecified), the TGI was greater than 100 µM. `C[C@@H]1CC[C@@]2(C)C(C(=O)O)=CCCC2[C@@]1(C)CC(=O)c1ccoc1` (stereo partly specified) gave a TGI greater than 25 µM. With `O=C(CCc1cc(O)cc(O)c1)NCCc1cc(OCc2ccccc2)cc(OCc2ccccc2)c1` the TGI was 28.2 µM. Work on `c1ccc(C2=NC3OC2c2ccccc23)cc1` (stereo unspecified) yielded a TGI greater than 10 µM. In the case of `CCOC(=O)CSc1nc(N)c2c(-c3ccccc3)c3c(nc2n1)CCCC3`, the TGI was greater than 100 µM. `COC(=O)/C=C(/C=C1/C(C#N)=C(N)N(c2ccc(Cl)cc2)C1(C)/C(=C\C(=O)OC)C(=O)OC)C(=O)OC` (stereo unspecified) gave a TGI of 16.4 µM. With `Cc1c2ccnc(C(N)=O)c2c(C)c2c1[nH]c1ccccc12` the TGI was 31.6 µM. `O=c1c2c3c(sc2[nH]c(=S)n1-c1ccccc1)CCCc1ccc([N+](=O)[O-])cc1-3` was tested, and the TGI was 36.5 µM. `CCOC1C=CC(=O)C(CO)O1` (stereo unspecified) was tested, and the TGI was 3.52 µM. Work on `Cc1c2cccc-2c2cc(O)c3ccccc3c2n1-c1ccc(N(C)C)cc1` yielded a TGI of 33 µM. For `O=CC(I)=C(c1ccccc1)c1ccccc1`, the TGI was 32.3 µM. Work on `Cn1c2ccccc2c2ccc3c(c21)C(=O)c1ccc2c4ccccc4n(C)c2c1C3=O` yielded a TGI greater than 100 µM. Work on `Cc1ccc(-c2cc(-c3ccco3)c(C#N)c(=S)[nH]2)cc1` yielded a TGI greater than 100 µM. `COC(=O)c1ccccc1C1CN=NC12Cc1c(ccc(C)c1C)C2=O` (stereo unspecified) gave a TGI greater than 100 µM. For `CN(C)CCN(c1ccccn1)c1ccccn1`, the TGI was greater than 100 µM. For `O=C(O)c1nc2ccc(C(F)(F)F)cc2[nH]c1=O`, the TGI was greater than 100 µM. `CC(C)NC(=O)OCc1c(COC(=O)NC(C)C)n(C)c2c1ccc1sccc12` gave a TGI of 15.5 µM. For `O=C(CC(NC(=O)C(F)(F)F)C(=O)O)OCc1ccccc1` (stereo unspecified), the TGI was greater than 100 µM. Work on `O=C1C=CC2(O[C@H](c3ccccc3)[C@@H](c3ccccc3)O2)[C@H](Sc2ccccc2O)C1` yielded a TGI of 0.182 µM.

Each compound was assayed on NCI/ADR-RES ovarian (assay: DTP human tumour cell line panel, 48 h).
With `O=c1c(F)cn2c(=O)n1CCCCCCCn1c(=O)c(F)cn(c1=O)CCCCCCC2` the TGI was greater than 100 µM. In the case of `O=C(ON=C1c2ccccc2C(Br)C(Br)c2ccccc21)c1ccccc1` (stereo unspecified), the TGI was 51.4 µM. `CC(=O)c1ccc(Oc2c3ccccc3nc3ccccc23)cc1` gave a TGI of 30.4 µM. For `Cn1c2ccccc2n2c3ncccc3c(=O)c(C#N)c12`, the TGI was greater than 100 µM. Work on `COc1ccc2nc(NC(=O)/C(C#N)=C/c3ccccc3)sc2c1` yielded a TGI greater than 69.6 µM. In the case of `Cc1nc2ccc(Cl)cc2c(-n2ccnc2)c1CCn1ccnc1`, the TGI was 6.03 µM. Work on `Cc1c(C)n(-c2ccccc2)c2nc(S(C)=O)nc(S(C)=O)c12` (stereo unspecified) yielded a TGI of 59.2 µM. `CC1(C)CC(=O)C2=C(C1)C(c1ccccc1Cl)C1C(=O)CC(C)(C)CC1(O)O2` (stereo unspecified) showed a TGI greater than 100 µM. Work on `C[C@@H]1CC[C@@]2(C)C(C(=O)O)=CCCC2[C@@]1(C)CC(=O)c1ccoc1` (stereo partly specified) yielded a TGI greater than 25 µM. With `O=C(CCc1cc(O)cc(O)c1)NCCc1cc(OCc2ccccc2)cc(OCc2ccccc2)c1` the TGI was 55.2 µM. `c1ccc(C2=NC3OC2c2ccccc23)cc1` (stereo unspecified) gave a TGI greater than 10 µM. With `CCOC(=O)CSc1nc(N)c2c(-c3ccccc3)c3c(nc2n1)CCCC3` the TGI was greater than 100 µM.
